Test results as given in patent publication US20150105252A1, “SUBSTITUTED PYRAZOLES AS HERBICIDES” (E I DU PONT DE NEMOURS AND COMPANY, priority 2013, published 2015).

Tests used:
foxtail, giant = assay: Test A preemergence; type: in vivo, Setaria faberii; details: preemergence
Method in brief: (§1)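 Greenhouse test in loam soil/sand blend; compounds formulated in non-phytotoxic solvent with surfactant, applied as preemergence directed soil spray or postemergence to plants 2–10 cm tall at one- to two-leaf stage. Injury rated visually versus untreated controls after approximately 10 days on a 0 (no effect) to 100 (complete control) scale.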

pigweed [1] = assay: Test A preemergence; type: in vivo, Amaranthus retroflexus; details: preemergence
Method in brief: as §1

corn [2] = assay: Test A preemergence; type: in vivo, Zea mays; details: preemergence
Method in brief: as §1

wheat [3] = assay: Test A postemergence; type: in vivo, Triticum aestivum
Method in brief: as §1

wheat [4] = assay: Test C preemergence; type: in vivo, Triticum aestivum; details: for Plant response rating (scale of 0 to 100), Wheat: Preemergence, 250 g ai/ha
Method in brief: (§2)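 Greenhouse pot test: preemergence application onto freshly seeded loam/sand mix, postemergence application onto seedlings (1–4 leaves, 2–18 cm) in peat-vermiculite substrate. Responses scored visually 13 to 15 days later relative to controls, where 0 means no effect and 100 means complete control; a dash indicates no result.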

corn [5] = assay: Test C preemergence; type: in vivo, Zea mays; details: for Plant response rating (scale of 0 to 100), Corn: Preemergence, 250 g ai/ha
Method in brief: as §2

crabgrass, large = assay: Test C preemergence; type: in vivo, Digitaria sanguinalis; details: for Plant response rating (scale of 0 to 100), Crabgrass, Large: Preemergence, 250 g ai/ha
Method in brief: as §2

johnsongrass = assay: Test C preemergence; type: in vivo, Sorghum halepense; details: for Plant response rating (scale of 0 to 100), Johnsongrass: Preemergence, 250 g ai/ha
Method in brief: as §2

morningglory = assay: Test C preemergence; type: in vivo, Ipomoea coccinea; details: for Plant response rating (scale of 0 to 100), Morningglory: Preemergence, 250 g ai/ha
Method in brief: as §2

pigweed [6] = assay: Test C preemergence; type: in vivo, Amaranthus retroflexus; details: for Plant response rating (scale of 0 to 100), Pigweed: Preemergence, 250 g ai/ha
Method in brief: as §2

barnyardgrass = assay: Test C preemergence; type: in vivo, Echinochloa crus-galli; details: for Plant response rating (scale of 0 to 100), Barnyardgrass: Preemergence, 250 g ai/ha
Method in brief: as §2

waterhemp = assay: Test C preemergence; type: in vivo, Amaranthus rudis; details: for Plant response rating (scale of 0 to 100), Waterhemp: Preemergence, 250 g ai/ha
Method in brief: as §2

velvetleaf = assay: Test C preemergence; type: in vivo, Abutilon theophrasti; details: for Plant response rating (scale of 0 to 100), Velvetleaf: Preemergence, 250 g ai/ha
Method in brief: as §2

[7] = 125 g ai/ha, visual injury, 0 to 100 scale, approx. 10 days
[8] = 500 g ai/ha, visual injury after approx. 10 days, 0 to 100 scale (0 no effect, 100 complete control)
[9] = postemergence, 125 g ai/ha, about 10 days, visual rating on 0 to 100 scale (0 no effect, 100 complete control)
[10] = preemergence, 31 g ai/ha, visual rating, scale 0 to 100 (0 no effect, 100 complete control), 13 to 15 days
[11] = preemergence, 62 g ai/ha, scale 0 to 100 (0 no effect, 100 complete control), 13 to 15 days
[12] = preemergence, 125 g ai/ha, scale 0 to 100, 0 is no effect, 100 is complete control
[13] = preemergence, 31 g ai/ha, scale 0 to 100 (0 no effect, 100 complete control), 13 to 15 days
[14] = preemergence, 125 g ai/ha, 13 to 15 days, scale 0 to 100, 0 = no effect, 100 = complete control

In the case of `CCCc1cc(C(=O)NCC(F)(F)F)nn1Cc1ccnc(C(F)(F)F)c1` [Compound 105], the “Foxtail, Giant plant response rating” value (foxtail, giant; [7]) is reported as 100, the “Foxtail, Giant plant response rating” value (foxtail, giant; [8]) is reported as 100 and the “Pigweed plant response rating” value (pigweed [1]; [7]) is reported as 100. The “Pigweed plant response rating” value (pigweed [1]; [8]) was 100, the “Corn plant response rating” value (corn [2]; [7]) was 60 and the “Corn plant response rating” value (corn [2]; [8]) was 70. For the same compound, the “Wheat plant response rating” value (wheat [3]; Postemergence, 500 g ai/ha, visual rating after approx. 10 days, 0 to 100 scale (0 no effect, 100 complete control)) was 100, the “Wheat plant response rating” value (wheat [3]; [9]) was 100 and the “Plant response rating (scale of 0 to 100), Wheat” value (wheat [4]) was 90. For the same compound, the “Wheat plant response rating” value (wheat [4]; [10]) was 75, the “Wheat plant response rating” value (wheat [4]; [11]) was 85 and the “Wheat plant response rating” value (wheat [4]; [12]) was 90. For the same compound, the “Plant response rating (scale of 0 to 100), Corn” value (corn [5]) was 95, the “Corn plant response rating” value (corn [5]; [10]) was 65 and the “Corn plant response rating” value (corn [5]; [12]) was 80. For the same compound, the “Plant response rating (scale of 0 to 100), Crabgrass, Large” value (crabgrass, large) was 100, the “Crabgrass, Large plant response rating” value (crabgrass, large; [10]) was 100 and the “Crabgrass, Large plant response rating” value (crabgrass, large; [11]) was 100. The “Crabgrass, Large plant response rating” value (crabgrass, large; [12]) was 100, the “Plant response rating (scale of 0 to 100), Johnsongrass” value (johnsongrass) was 100 and the “Johnsongrass plant response rating” value (johnsongrass; [10]) was 80. The “Johnsongrass plant response rating” value (johnsongrass; [11]) was 95, the “Johnsongrass plant response rating” value (johnsongrass; [12]) was 100 and the “Plant response rating (scale of 0 to 100), Morningglory” value (morningglory) was 100. The “Morningglory plant response rating” value (morningglory; [10]) was 100, the “Morningglory plant response rating” value (morningglory; [11]) was 100 and the “Morningglory plant response rating” value (morningglory; [12]) was 100. The “Plant response rating (scale of 0 to 100), Pigweed” value (pigweed [6]) was 100, the “Pigweed plant response rating” value (pigweed [6]; [10]) was 100 and the “Pigweed plant response rating” value (pigweed [6]; [11]) was 100. The “Pigweed plant response rating” value (pigweed [6]; [12]) was 100, the “Plant response rating (scale of 0 to 100), Barnyardgrass” value (barnyardgrass) was 100 and the “Barnyardgrass plant response rating” value (barnyardgrass; [13]) was 98. The “Barnyardgrass plant response rating” value (barnyardgrass; [11]) was 100, the “Barnyardgrass plant response rating” value (barnyardgrass; [12]) was 100 and the “Plant response rating (scale of 0 to 100), Waterhemp” value (waterhemp) was 100. The “Waterhemp plant response rating” value (waterhemp; [10]) was 100, the “Waterhemp plant response rating” value (waterhemp; [11]) was 100 and the “Waterhemp plant response rating” value (waterhemp; [12]) was 100. The “Plant response rating (scale of 0 to 100), Velvetleaf” value (velvetleaf) was 100, the “Velvetleaf plant response rating” value (velvetleaf; [10]) was 98 and the “Velvetleaf plant response rating” value (velvetleaf; [11]) was 100. For the same compound, the “Velvetleaf plant response rating” value (velvetleaf; [12]) was 100.
For `CCCc1cc(C(=O)NCC)nn1Cc1cc(C(F)(F)F)nn1C` [Compound 129], the “Foxtail, Giant plant response rating” value (foxtail, giant; [7]) was 100, the “Foxtail, Giant plant response rating” value (foxtail, giant; [8]) was 100 and the “Pigweed plant response rating” value (pigweed [1]; [7]) was 100. The “Pigweed plant response rating” value (pigweed [1]; [8]) was 100, the “Corn plant response rating” value (corn [2]; [7]) was 10 and the “Corn plant response rating” value (corn [2]; [8]) was 30. The “Wheat plant response rating” value (wheat [3]; Postemergence, 500 g ai/ha, 0 to 100 scale (0 no effect, 100 complete control)) was 70, the “Wheat plant response rating” value (wheat [3]; [9]) was 50 and the “Plant response rating (scale of 0 to 100), Wheat” value (wheat [4]) was 90. The “Wheat plant response rating” value (wheat [4]; [10]) was 0, the “Wheat plant response rating” value (wheat [4]; [11]) was 35 and the “Plant response rating, Wheat” value (wheat [4]; [14]) was 85. The “Plant response rating (scale of 0 to 100), Corn” value (corn [5]) was 65, the “Corn plant response rating” value (corn [5]; [10]) was 0 and the “Corn plant response rating” value (corn [5]; [11]) was 15. The “Plant response rating, Corn” value (corn [5]; [14]) was 55, the “Plant response rating (scale of 0 to 100), Crabgrass, Large” value (crabgrass, large) was 100 and the “Crabgrass, Large plant response rating” value (crabgrass, large; [10]) was 90. The “Crabgrass, Large plant response rating” value (crabgrass, large; [11]) was 100, the “Plant response rating, Crabgrass, Large” value (crabgrass, large; [14]) was 100 and the “Plant response rating (scale of 0 to 100), Johnsongrass” value (johnsongrass) was 100. The “Johnsongrass plant response rating” value (johnsongrass; [10]) was 10, the “Johnsongrass plant response rating” value (johnsongrass; [11]) was 70 and the “Plant response rating, Johnsongrass” value (johnsongrass; [14]) was 98. For the same compound, the “Plant response rating (scale of 0 to 100), Morningglory” value (morningglory) was 100, the “Morningglory plant response rating” value (morningglory; [10]) was 45 and the “Morningglory plant response rating” value (morningglory; [11]) was 98. For the same compound, the “Plant response rating, Morningglory” value (morningglory; [14]) was 100, the “Plant response rating (scale of 0 to 100), Pigweed” value (pigweed [6]) was 100 and the “Pigweed plant response rating” value (pigweed [6]; [10]) was 100. The “Pigweed plant response rating” value (pigweed [6]; [11]) was 100, the “Plant response rating, Pigweed” value (pigweed [6]; [14]) was 100 and the “Plant response rating (scale of 0 to 100), Barnyardgrass” value (barnyardgrass) was 100. For the same compound, the “Barnyardgrass plant response rating” value (barnyardgrass; [13]) was 95, the “Barnyardgrass plant response rating” value (barnyardgrass; [11]) was 100 and the “Plant response rating, Barnyardgrass” value (barnyardgrass; [14]) was 100. For the same compound, the “Plant response rating (scale of 0 to 100), Waterhemp” value (waterhemp) was 100, the “Waterhemp plant response rating” value (waterhemp; [10]) was 100 and the “Waterhemp plant response rating” value (waterhemp; [11]) was 100. For the same compound, the “Plant response rating, Waterhemp” value (waterhemp; [14]) was 100, the “Plant response rating (scale of 0 to 100), Velvetleaf” value (velvetleaf) was 100 and the “Velvetleaf plant response rating” value (velvetleaf; [10]) was 55. The “Velvetleaf plant response rating” value (velvetleaf; [11]) was 100 and the “Plant response rating, Velvetleaf” value (velvetleaf; [14]) was 100.
